Patent US10087188B2, “Benzamide imidazopyrazine Btk inhibitors” (MERCK SHARP & DOHME CORP., priority 2014, dated 2018)
pIC50: −log10 of the molar value. Like-named read-outs stand apart in the source and are kept apart here.

Tests used:
HeLa cells = assay: [3H] Adenosine uptake assay; type: cell-based; conditions: accumulation of tritiated adenosine into HeLa cells, compound concentration range 10 μM to 0.032 nM, read-out: ADU inhibition IC50 (adenosine uptake inhibition potency)
Protocol: Compounds are also screen in an adenosine uptake functional cellular assay using the protocol described below:
[^3H] Adenosine Uptake Assay Methods
Adenosine uptake activity was determined by monitoring the accumulation of tritiated adenosine into HeLa cells (ATCC catalog #CCL-2) using a PMT-based radiometric detection instrument. […] These cells were incubated overnight at 37° C. in a humidified atmosphere with 5% (v/v) CO2. After this time the growth medium was removed and replaced with 40 μL assay medium comprising: Hanks balanced salts solution (HBSS; Thermo Fisher Catalog #SH30268.01)+5% (v/v) FBS. Compound stock solutions in DMSO were diluted in assay medium to 2.5× final compound concentration maintaining a constant DMSO concentration of 0.25% (v/v). 40 μL of compound in assay medium was dispensed into individual wells of the Cytostar-T plates and the plates were incubated for 30 minutes under ambient laboratory conditions. Following this incubation, 20 μL of 500 nM[^3H] adenosine (American Radiolabeled Chemicals Inc. Catalog #ART0287) in assay medium was added and incubated for a further 60 minutes under ambient laboratory conditions. The amount of radiolabel accumulation was then determined using a Perkin Elmer Topcount NXT microplate reader. In brief, HeLa cells adhere to the bottom of the Cytostar-T plate, uptake of [^3H]adenosine into these cells brings the radiolabel into sufficient proximity to excite the scintillant in the base of the plates. These events are captured by single PMT, time-resolved coincidence counting. IC50 values were determined by 4 parameter robust fit of counts per second values vs. (Log10) compound concentrations.

[1] = target: BTK enzyme (recombinant full-length BTK, hBTK) (Homo sapiens (Human), UniProt Q06187); assay: Btk enzyme activity assay, LANCE TR-FRET; type: biochemical; conditions: 50 pM hBTK, 2 μM biotin-A5-peptide, 25 μM ATP; 60 minute compound & enzyme incubation; read-out: BTK binding IC50
Protocol: Btk Enzyme Activity Assay Methods
BTK enzymatic activity was determined with the LANCE (Lanthanide Chelate Excite) TR-FRET (Time-resolved fluorescence resonance energy transfer) assay. […] After 60 minutes incubation with detection reagents, reaction plates were read on a PerkinElmer EnVision plate reader using standard TR-FRET protocol.

BTK enzyme (recombinant full-length BTK, hBTK), sequence (Q06187 whole entry): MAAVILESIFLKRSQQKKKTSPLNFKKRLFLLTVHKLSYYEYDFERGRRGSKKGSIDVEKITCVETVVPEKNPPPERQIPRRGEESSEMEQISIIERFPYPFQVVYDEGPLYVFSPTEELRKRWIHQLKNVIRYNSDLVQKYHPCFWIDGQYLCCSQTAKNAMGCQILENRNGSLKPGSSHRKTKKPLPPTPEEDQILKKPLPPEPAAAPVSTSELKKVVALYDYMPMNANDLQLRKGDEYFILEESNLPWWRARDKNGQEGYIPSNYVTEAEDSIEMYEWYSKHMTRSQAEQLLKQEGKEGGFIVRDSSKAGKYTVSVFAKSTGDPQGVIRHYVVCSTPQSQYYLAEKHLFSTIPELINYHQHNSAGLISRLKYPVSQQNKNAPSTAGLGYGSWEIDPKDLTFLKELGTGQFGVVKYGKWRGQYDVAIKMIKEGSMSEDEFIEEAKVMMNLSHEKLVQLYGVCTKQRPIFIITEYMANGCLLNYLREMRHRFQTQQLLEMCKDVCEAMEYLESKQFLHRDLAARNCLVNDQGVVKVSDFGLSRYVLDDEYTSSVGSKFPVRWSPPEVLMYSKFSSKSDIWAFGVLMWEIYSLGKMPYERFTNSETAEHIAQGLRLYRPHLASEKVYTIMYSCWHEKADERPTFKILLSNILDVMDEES

pIC50 (HeLa cells; Homo sapiens, HeLa)	pIC50 [1]	pIC50 (HeLa cells)	SMILES
5.00	9.00	–	Nc1nccn2c(-c3ccc(F)c(C(=O)O)c3)nc(-c3ccc(C(=O)Nc4cc(C(F)(F)F)ccn4)cc3)c12 [Example 24, 5-[8-amino-1-(4-{[4-(trifluoromethyl)pyridin-2-yl]carbamoyl}phenyl)imidazo[1,5-a]pyrazin-3-yl]-2-fluorobenzoic acid]
5.32	8.68	–	Nc1nccn2c([C@@H]3CC[C@H](C(=O)NC4(C(=O)O)CC4)C3)nc(-c3ccc(C(=O)Nc4cc(C(F)(F)F)ccn4)cc3)c12 [Example 16, 1-[({(1S,3R)-3-[8-amino-1-(4-{[4-(trifluoromethyl)pyridin-2-yl]carbamoyl}phenyl)imidazo[1,5-a]pyrazin-3-yl]cyclopentyl}carbonyl)amino] cyclopropane-carboxylic acid]
5.77	9.38	–	C[C@H]1CO[C@@H](c2nc(-c3ccc(C(=O)Nc4cc(C(F)(F)F)ccn4)cc3F)c3c(N)ncc(Cl)n23)CN1[C@H]1CC[C@](C)(C(=O)O)CC1 [Example 200, trans-4-{(2R,5S)-2-[8-amino-5-chloro-1-(2-fluoro-4-{[4-(trifluoromethyl)pyridin-2-yl]carbamoyl}phenyl)imidazo [1,5-a]pyrazin-3-yl]-5-methylmorpholin-4-yl}-1-methylcyclohexanecarboxylic acid]
6.18	9.39	–	N#Cc1ccnc(NC(=O)c2ccc(-c3nc(C45C6C7C4C4C5C6C74C(=O)O)n4ccnc(N)c34)c(F)c2)c1 (stereo not shown) [Example 76, 4-(8-amino-1-(4-((4-cyanopyridin-2-yl)carbamoyl)-2-fluorophenyl)imidazo [1,5-a]pyrazin-3-yl)cubane-1-carboxylic acid]
5.43	7.41	–	CCOc1cc(C(=O)Nc2cc(C(F)(F)F)ccn2)ccc1-c1nc([C@@H]2CCC[C@@](C(=O)O)(C(C)C)C2)n2ccnc(N)c12 [Example 88, (1S,3R)-3-[8-amino-1-(2-ethoxy-4-{[4-(trifluoromethyl)pyridin-2-yl]carbamoyl}phenyl)imidazo[1,5-a]pyrazin-3-yl]-1-(1-methylethyl) cyclohexane-carboxylic acid]
5.00	9.28	–	Nc1nccn2c([C@@H]3CC[C@H]4[C@H](C(=O)O)[C@H]43)nc(-c3ccc(C(=O)Nc4cc(C(F)(F)F)ccn4)cc3)c12 [Example 56, (1R,2R,5R,6S)-2-[8-amino-1-(4-{[4-(trifluoromethyl)pyridin-2-yl]carbamoyl}phenyl)imidazo[1,5-a]pyrazin-3-yl]bicyclo[3.1.0]hexane-6-carboxylic acid]
5.00	9.41	–	Nc1nccn2c([C@@H]3CCC[C@H](C(=O)O)C3)nc(-c3ccc(C(=O)Nc4cc(C(F)(F)F)ccn4)cc3F)c12 [Example 10, (1S,3R)-3-[8-amino-1-(2-fluoro-4-{[4-(trifluoromethyl)pyridin-2-yl]carbamoyl}phenyl)imidazo [1,5-a]pyrazin-3-yl]cyclohexane-carboxylic acid]
5.00	8.70	–	Nc1nccn2c(-c3ccc(C(=O)O)[nH]3)nc(-c3ccc(C(=O)Nc4cc(C(F)(F)F)ccn4)cc3)c12 [Example 27, 5-[8-amino-1-(4-{[4-(trifluoromethyl)pyridin-2-yl]carbamoyl}phenyl)imidazo[1,5-a]pyrazin-3-yl]-1H-pyrrole-2-carboxylic acid]
5.00	9.02	–	CCOc1cc(C(=O)Nc2cc(C(F)(F)F)ccn2)cc(F)c1-c1nc([C@]2(C)CC[C@@](C)(C(=O)O)CC2)n2ccnc(N)c12 [Example 119, trans-4-[8-amino-1-(2-ethoxy-6-fluoro-4-{[4-(trifluoromethyl)pyridin-2-yl]carbamoyl}phenyl)imidazo[1,5-a]pyrazin-3-yl]-1,4-dimethylcyclohexane-carboxylic acid]
5.88	9.31	–	CC1(C(=O)O)CCC(N2CCO[C@@H](c3nc(-c4ccc(C(=O)Nc5cc(C(F)(F)F)ccn5)cc4)c4c(N)nccn34)C2)CC1 (stereo partly drawn) [Example 176, (R)-4-(2-(8-amino-1-(4-((4-(trifluoromethyl)pyridin-2-yl)carbamoyl)phenyl)imidazo[1,5-a]pyrazin-3-yl)morpholino)-1-methylcyclohexanecarboxylic acid]
–	8.40	5.00	CC(C)(C(=O)O)C1CCC(c2nc(-c3ccc(C(=O)Nc4cc(C(F)(F)F)ccn4)cc3)c3c(N)nccn23)C1 (stereo not shown) [Example 96, 2-{3-[8-amino-1-(4-{[4-(trifluoromethyl)pyridin-2-yl]carbamoyl}phenyl)imidazo[1,5-a]pyrazin-3-yl]cyclopentyl}-2-methylpropanoic acid]
–	7.24	5.00	CC(C)C1(C(=O)O)CCC(C)(c2nc(-c3ccc(C(=O)Nc4cc(C(F)(F)F)ccn4)cc3)c3c(N)nccn23)C1 (stereo not shown) [Example 145, 3-[8-amino-1-(4-{[4-(trifluoromethyl)pyridin-2-yl]carbamoyl}phenyl)imidazo[1,5-a]pyrazin-3-yl]-3-methyl-1-(1-methylethyl) cyclopentane-carboxylic acid]
5.44	9.05	–	C[C@@]1(C(=O)O)CCC[C@@](C)(c2nc(-c3ccc(C(=O)Nc4cc(C(F)(F)F)ccn4)cc3)c3c(N)nccn23)C1 [Example 137, (1R,3R)-3-[8-amino-1-(4-{[4-(trifluoromethyl)pyridin-2-yl]carbamoyl}phenyl)imidazo[1,5-a]pyrazin-3-yl]-1,3-dimethylcyclohexane-carboxylic acid]
5.93	9.19	–	C[C@H]1CO[C@@H](c2nc(-c3ccc(C(=O)Nc4cc(C(F)(F)F)ccn4)cc3)c3c(N)nccn23)CN1[C@H]1CC[C@](C)(C(=O)O)CC1 [Example 191, trans-4-{(2R,5S)-2-[8-amino-1-(4-{[4-(trifluoromethyl)pyridin-2-yl]carbamoyl}phenyl)imidazo [1,5-a]pyrazin-3-yl]-5-methylmorpholin-4-yl}-1-methylcyclohexanecarboxylic acid]
5.16	9.54	–	COc1cc(C(=O)Nc2cc(C(F)(F)F)ccn2)ccc1-c1nc(C23CCC(C(=O)O)(CC2)CC3)n2ccnc(N)c12 [Example 171, 4-[8-amino-1-(2-methoxy-4-{[4-(trifluoromethyl)pyridin-2-yl]carbamoyl}phenyl)imidazo[1,5-a]pyrazin-3-yl]bicyclo[2.2.2] octane-1-carboxylic acid]
5.03	8.80	–	CCOc1cc(C(=O)Nc2cc(C(F)(F)F)ccn2)c(F)cc1-c1nc([C@@]2(C)CC[C@](C)(C(=O)O)C2)n2ccnc(N)c12 [Example 128, (1S,3S)-3-[8-amino-1-(2-ethoxy-5-fluoro-4-{[4-(trifluoromethyl)pyridin-2-yl]carbamoyl}phenyl)imidazo[1,5-a]pyrazin-3-yl]-1,3-dimethylcyclopentane carboxylic acid]
5.50	9.60	–	C[C@@]1(C(=O)O)CC[C@@](C)(c2nc(-c3ccc(C(=O)Nc4cc(C(F)(F)F)ccn4)cc3Cl)c3c(N)nccn23)C1 [Example 132, (1R,3R)-3-[8-amino-1-(2-chloro-4-{[4-(trifluoromethyl)pyridin-2-yl]carbamoyl}phenyl)imidazo[1,5-a]pyrazin-3-yl]-1,3-dimethylcyclopentane carboxylic acid]
–	8.77	–	C[C@]1(C(=O)O)CCC[C@@H](c2nc(-c3ccc(C(=O)Nc4cc(C5CC5)ccn4)cc3F)c3c(N)nccn23)C1 [Example 156, (1S,3R)-3-(8-amino-1-{4-[(4-cyclopropylpyridin-2-yl)carbamoyl]-2-fluorophenyl}imidazo [1,5-a]pyrazin-3-yl)-1-methylcyclohexane-carboxylic acid]
–	7.39	–	COc1cc(C(=O)Nc2cc(C(F)(F)F)ccn2)ccc1-c1nc([C@H]2CCC[C@@H](C(=O)O)C2)n2ccnc(N)c12 [Example 5, (1R,3S)-3-[8-amino-1-(2-methoxy-4-{[4-(trifluoromethyl)pyridin-2-yl]carbamoyl}phenyl)imidazo [1,5-a]pyrazin-3-yl]cyclohexane-carboxylic acid]
–	7.53	–	Nc1nccn2c([C@H]3CCC[C@@H](C(=O)O)C3)nc(-c3ccc(C(=O)Nc4cc(C5CC5)ccn4)cc3)c12 [Example 4, (1R,3S)-3-(8-amino-1-{4-[(4-cyclopropyl-pyridin-2-yl)carbamoyl]phenyl}imidazo [1,5-a]pyrazin-3-yl)cyclohexane-carboxylic acid]
